Assay results: US12054498B2, “Heteroaromatic macrocyclic ether chemotherapeutic agents” (Nuvalent, Inc., priority 2020, dated 2024)

Key:
Type in all cases: cell-based
[1] = molecular target: T1, Ba/F3 cells EML4-ALK L1196M/G1202R (variant 1) (Homo sapiens, UniProt Q9UM73, G1202R/L1196M); assay: Ba/F3 cell proliferation assay, EML4-ALK L1196M/G1202R (variant 1); conditions: 72 hours, CellTiter-Glo
T1 construct: echinoderm microtubule-associated protein-like 4 (EML4) gene and the ALK tyrosine kinase domain; host or cells: Ba/F3 (RIKEN), retroviral pMSCV-puro; the other entry of the earlier key: EML4 (Q9HC35, Echinoderm microtubule-associated protein-like 4)
Excerpt: (§1) Genes encoding CD74-ROS1 wild-type (wt), CD74-ROS1 G2032R, CD74-ROS1 S1986F, CD74-ROS1 L2026M, CD74-ROS1 D2033N, EML4-ALK wt (variant 1), EML4-ALK G1202R (variant 1), EML4-ALK L1196M/G1202R (variant 1), EML4-ALK G1202R/G1269A (variant 1), EML4-ALK G1202R/L1198F (variant 1), and TPM3-TRKA were synthesized at GeneRay, cloned into the retroviral construct pMSCV-puro (Biovector), and packaged into retroviral particles. The virus was used to infect Ba/F3 cells (RIKEN) at multiplicity of infection=1 for 1 day. Infected cells were rescued in media (RPMI-1640 with 10% fetal bovine serum and 1% streptomycin and penicillin) supplemented with mouse IL-3 (10 ng/mL) for 2 days, and stable cell lines were selected by IL-3 withdrawal and puromycin (0.8 μg/mL) for 7 days. Monoclones were selected by single-cell dilution in IL-3-free medium containing puromycin (0.8 μg/mL). Transformation of desired genes was confirmed by Sanger sequencing and western blot using the following antibodies: ROS1 (CST #3287), ALK (CST #3633), and pan-TRK (Abcam #76291).
(§2) Cell Proliferation Assay Stable cells were plated at 1,000 cells/well (40 μL) in a 384-well plate for 1 day.
(§3) Test compounds (40 nL) were then added in a 3-fold dilution series using the TECAN EVO200 liquid handler and incubated for 72 hours. Plates were equilibrated at room temperature for 15 minutes followed by addition of 40 μL CellTiter-Glo reagent (Promega).
(§4) Luminescence was measured on a plate reader. Half-maximal inhibitory concentration (IC50) was calculated from percent inhibition and inhibitor concentration using four-parameter logistic regression. […] (nd=not determined).

[2] = system: TPM3-NTRK1-wt IC50 / primary target IC50 (e.g. CD74-ROS1-wt); assay: TRKA selectivity in Ba/F3 cells (TRKA potency divided by primary target potency); conditions: for TPM3-NTRK1-wt/CD74-ROS1-G2032R selectivity ratio: TRKA potency / CD74-ROS1-G2032R potency; for TPM3-NTRK1-wt/CD74-ROS1-wt selectivity ratio: TRKA potency / CD74-ROS1-wt potency; for TPM3-NTRK1-wt/EML4-ALK-L1196M-G1202R selectivity ratio: TRKA potency / EML4-ALK-L1196M-G1202R potency; for TPM3-NTRK1-wt/EML4-ALK-wt selectivity ratio: TRKA potency / EML4-ALK-wt potency
Protocol: TRKA selectivity was calculated by dividing a compound's TRKA potency by its primary target potency (e.g. TPM3-NTRK1-wt IC50/CD74-ROS1-wt IC50). Compound selectivity can be interpreted by binning ratio values: bin A for very high selectivity, ratio >30-fold; bin B for high selectivity, ratio >10-fold; bin C for moderate selectivity, ratio ≥1; and bin D for low selectivity, ratio <1. […] (nd=not determined).

[3] = molecular target: T2, Ba/F3 cells CD74-ROS1 G2032R (Homo sapiens, UniProt P08922, G2032R); assay: Ba/F3 cell proliferation assay, CD74-ROS1 G2032R; conditions: 72 hours, CellTiter-Glo
T2 construct: fusion of the C-terminus of ROS1 with the N-terminus of various partner proteins; host or cells: Ba/F3 (RIKEN), retroviral pMSCV-puro; the other entry of the earlier key: CD74 (P04233, HLA class II histocompatibility antigen gamma chain)
Protocol: (§5) The virus was used to infect Ba/F3 cells (RIKEN) at multiplicity of infection=1 for 1 day. Infected cells were rescued in media (RPMI-1640 with 10% fetal bovine serum and 1% streptomycin and penicillin) supplemented with mouse IL-3 (10 ng/mL) for 2 days, and stable cell lines were selected by IL-3 withdrawal and puromycin (0.8 μg/mL) for 7 days. Monoclones were selected by single-cell dilution in IL-3-free medium containing puromycin (0.8 μg/mL).
as §2, §3, §4

[4] = molecular target: T3, Ba/F3 cells CD74-ROS1 wild-type (wt) (Homo sapiens, UniProt P08922); assay: Ba/F3 cell proliferation assay, CD74-ROS1 wild-type; conditions: 72 hours, CellTiter-Glo
T3 construct: fusion of the C-terminus of ROS1 with the N-terminus of various partner proteins; host or cells: Ba/F3 (RIKEN), retroviral pMSCV-puro; the other entry of the earlier key: CD74 (P04233, HLA class II histocompatibility antigen gamma chain)
Protocol: as §5, §2, §3, §4

[5] = molecular target: T4, Ba/F3 cells EML4-ALK wt (variant 1) (Homo sapiens, UniProt Q9UM73); assay: Ba/F3 cell proliferation assay, EML4-ALK wt (variant 1); conditions: 72 hours, CellTiter-Glo
T4 construct: echinoderm microtubule-associated protein-like 4 (EML4) gene and the ALK tyrosine kinase domain; host or cells: Ba/F3 (RIKEN), retroviral pMSCV-puro; the other entry of the earlier key: EML4 (Q9HC35, Echinoderm microtubule-associated protein-like 4)
Excerpt: as §1, §2, §3, §4

Ba/F3 cells TPM3-TRKA = molecular target: T5, Ba/F3 cells TPM3-TRKA (Homo sapiens, UniProt P04629); assay: Ba/F3 cell proliferation assay, TPM3-TRKA; conditions: 72 hours, CellTiter-Glo, read-out: TPM3-NTRK1-wt IC50
T5 construct: host or cells: Ba/F3 (RIKEN), retroviral pMSCV-puro; the other entry of the earlier key: TPM3 (P06753, Tropomyosin alpha-3 chain)
Excerpt: as §1, §2, §3, §4

T5 sequence (P04629 510-796 limits assumed): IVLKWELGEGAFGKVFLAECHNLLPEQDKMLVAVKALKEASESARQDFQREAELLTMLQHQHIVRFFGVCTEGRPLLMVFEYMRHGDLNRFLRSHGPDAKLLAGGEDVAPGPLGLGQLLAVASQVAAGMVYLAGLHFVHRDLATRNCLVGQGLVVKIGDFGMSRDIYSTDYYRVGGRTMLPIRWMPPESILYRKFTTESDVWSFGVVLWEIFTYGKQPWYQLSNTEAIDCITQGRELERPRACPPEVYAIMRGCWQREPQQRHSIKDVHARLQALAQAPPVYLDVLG
T2 sequence (P08922 1883-2347 G2032R limits assumed): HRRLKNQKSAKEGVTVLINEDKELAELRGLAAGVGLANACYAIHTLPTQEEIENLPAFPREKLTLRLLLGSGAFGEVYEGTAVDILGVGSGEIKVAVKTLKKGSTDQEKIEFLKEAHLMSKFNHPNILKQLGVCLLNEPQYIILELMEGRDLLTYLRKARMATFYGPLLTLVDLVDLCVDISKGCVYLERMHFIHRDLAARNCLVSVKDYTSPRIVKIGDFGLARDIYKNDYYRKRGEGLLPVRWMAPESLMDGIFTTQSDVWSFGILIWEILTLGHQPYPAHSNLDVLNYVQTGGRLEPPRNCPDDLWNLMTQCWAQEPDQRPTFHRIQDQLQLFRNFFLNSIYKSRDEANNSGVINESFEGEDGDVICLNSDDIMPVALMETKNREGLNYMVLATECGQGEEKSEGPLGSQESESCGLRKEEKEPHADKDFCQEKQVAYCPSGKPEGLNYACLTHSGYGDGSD
T4 sequence (Q9UM73 with tags, fused parts or gaps): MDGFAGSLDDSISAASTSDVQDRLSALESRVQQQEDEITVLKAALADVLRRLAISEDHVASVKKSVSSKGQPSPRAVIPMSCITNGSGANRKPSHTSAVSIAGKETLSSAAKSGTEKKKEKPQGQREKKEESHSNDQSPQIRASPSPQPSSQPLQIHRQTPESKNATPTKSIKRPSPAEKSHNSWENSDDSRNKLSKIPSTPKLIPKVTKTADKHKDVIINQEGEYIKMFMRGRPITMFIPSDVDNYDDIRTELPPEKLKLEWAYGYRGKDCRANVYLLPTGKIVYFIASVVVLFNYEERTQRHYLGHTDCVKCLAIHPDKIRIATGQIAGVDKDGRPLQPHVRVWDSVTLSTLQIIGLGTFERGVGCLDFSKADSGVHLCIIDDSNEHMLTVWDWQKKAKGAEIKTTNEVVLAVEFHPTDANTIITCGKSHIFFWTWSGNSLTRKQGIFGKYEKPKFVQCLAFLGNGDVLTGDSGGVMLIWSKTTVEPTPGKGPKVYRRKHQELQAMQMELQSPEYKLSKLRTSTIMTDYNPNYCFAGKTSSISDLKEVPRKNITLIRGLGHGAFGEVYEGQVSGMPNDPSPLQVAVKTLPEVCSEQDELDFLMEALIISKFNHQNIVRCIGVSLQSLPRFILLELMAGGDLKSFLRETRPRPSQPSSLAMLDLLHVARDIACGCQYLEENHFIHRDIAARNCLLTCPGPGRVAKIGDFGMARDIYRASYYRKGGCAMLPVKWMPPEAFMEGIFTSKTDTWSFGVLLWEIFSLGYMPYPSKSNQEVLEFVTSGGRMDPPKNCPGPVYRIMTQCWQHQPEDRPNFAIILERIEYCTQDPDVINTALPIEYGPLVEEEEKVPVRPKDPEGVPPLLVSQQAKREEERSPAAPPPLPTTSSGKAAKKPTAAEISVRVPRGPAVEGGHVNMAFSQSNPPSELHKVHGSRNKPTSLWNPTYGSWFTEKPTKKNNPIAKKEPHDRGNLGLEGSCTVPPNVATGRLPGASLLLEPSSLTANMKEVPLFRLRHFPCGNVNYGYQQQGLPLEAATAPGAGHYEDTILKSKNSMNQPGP
T1 sequence (Q9UM73 with tags, fused parts or gaps L1196M/G1202R): as the sequence (Q9UM73 with tags, fused parts or gaps) above, with L635M, G641R counted along it
T3 sequence (P08922 1883-2347 limits assumed): as the sequence (P08922 1883-2347 G2032R limits assumed) above, with R150G counted along it

| SMILES | IC50 [1] [nM] | TPM3-NTRK1-wt/CD74-ROS1-G2032R selectivity ratio [2] | TPM3-NTRK1-wt/CD74-ROS1-wt selectivity ratio [2] | TPM3-NTRK1-wt/EML4-ALK-L1196M-G1202R selectivity ratio [2] | TPM3-NTRK1-wt/EML4-ALK-wt selectivity ratio [2] | IC50 [3] [nM] | IC50 [4] [nM] | IC50 [5] [nM] | IC50 (Ba/F3 cells TPM3-TRKA) [nM] |
| --- | --- | --- | --- | --- | --- | --- | --- | --- | --- |
| CCn1nc(Cl)c2c1-c1cnc(N)c(c1)O[C@H](C)c1cc(F)ccc1-c1ncnn1C2 [Example 43, (19R)-5-chloro-3-ethyl-16-fluoro-19-methyl-20-oxa-3,4,8,9,11,23-hexaazapentacyclo[19.3.1.0^2,^6.0^8,^12.0^13,^18]pentacosa-1(24),2,(6),4,9,11,13,15,17,21(25),22-decaen-22-amine] | 50 to 500 | A (bin A for very high selectivity, ratio >30-fold) | A (bin A for very high selectivity, ratio >30-fold) | C (bin C for moderate selectivity, ratio ≥1) | B (bin B for high selectivity, ratio >10-fold) | 0.1 to 50 | 0.1 to 50 | 50 to 500 | > 500 |
| CCn1ccc2c1-c1cnc(N)c(c1)O[C@H](C)c1cc(F)ccc1-c1nn(C)nc1C2 [Example 102, (19R)-3-ethyl-16-fluoro-10,19-dimethyl-20-oxa-3,9,10,11,23-pentaazapentacyclo[19.3.1.0^2,^6.0^8,^12.0^13,^18]pentacosa-1(24),2(6),4,8,11,13,15,17,21(25),22-decaen-22-amine] | > 500 | B (bin B for high selectivity, ratio >10-fold) | A (bin A for very high selectivity, ratio >30-fold) | C (bin C for moderate selectivity, ratio ≥1) | B (bin B for high selectivity, ratio >10-fold) | 50 to 500 | 0.1 to 50 | 50 to 500 | > 500 |
| CCn1ncc2c1-c1cnc(N)c(c1)O[C@H](C)c1cc(F)ccc1-c1c(Cl)cnn1C2 [Example 27, (19R)-11-chloro-3-ethyl-16-fluoro-19-methyl-20-oxa-3,4,8,9,23-pentaazapentacyclo[19.3,1.0^2,^6.0^8,^12.0^13,^18]pentacosa-1(24),2(6),4,9,11,13,15,17,21(25),22-decaen-22-amine] | 50 to 500 | A (bin A for very high selectivity, ratio >30-fold) | – | C (bin C for moderate selectivity, ratio ≥1) | B (bin B for high selectivity, ratio >10-fold) | 0.1 to 50 | – | 0.1 to 50 | > 500 |
| CCn1ncc2c1-c1cnc(N)c(c1)O[C@H](C)c1cc(F)ccc1-c1c(ncn1C)C2 [Example 11, (19R)-3-ethyl-16-fluoro-11,19-dimethyl-20-oxa-3,4,9,11,23-pentaazapentacyclo[19.3.1.0^2,^6.0^8,^12.0^13,^18]pentacosa-1(24),2(6),4,8(12),9,13,15,17,21(25),22-decaen-22-amine] | 50 to 500 | A (bin A for very high selectivity, ratio >30-fold) | – | B (bin B for high selectivity, ratio >10-fold) | – | 0.1 to 50 | – | – | > 500 |
| CCn1ncc2c1-c1cnc(N)c(c1)O[C@H](C)c1cc(F)ccc1-c1ncn(C)c1C2 [Example 6, (19R)-3-ethyl-16-fluoro-9,19-dimethyl-20-oxa-3,4,9,11,23-pentaazapentacyclo[19.3.1.0^2,^6.0^8,^12.0^13,^18]pentacosa-1(24),2(6),4,8(12),10,13,15,17,21(25),22-decaen-22-amine] | 0.1 to 50 | A (bin A for very high selectivity, ratio >30-fold) | – | C (bin C for moderate selectivity, ratio ≥1) | A (bin A for very high selectivity, ratio >30-fold) | 0.1 to 50 | – | 0.1 to 50 | 50 to 500 |
| CCc1onc2c1-c1cnc(N)c(c1)O[C@H](C)c1cc(F)ccc1-c1nn(C)nc1C2 [Example 31, (19R)-3ethyl-16-fluoro-10,19-dimethyl-4,20-dioxa-5,9,10,11,23-pentaazapentacyclo[19.3.1.0^2,^6.0^8,^12.0^13,^18]pentacosa-1(24),2,5,8,11,13,15,17,21(25),22-decaen-22-amine] | 50 to 500 | A (bin A for very high selectivity, ratio >30-fold) | – | C (bin C for moderate selectivity, ratio ≥1) | – | 0.1 to 50 | – | – | 50 to 500 |
| Cc1nc2c(s1)-c1ccc(F)cc1[C@@H](C)Oc1cc(cnc1N)-c1c(C#N)nn(C)c1C2 [Example 68, (19R)-22-amino-16-fluoro-5,10,19-trimethyl-20-oxa-11-thia-4,5,9,23-tetraazapentacyclo[19.3.1.0^2,^6.0^8,^12.0^13,^18]pentacosa-1(24),2(6),3,8(12),9,13,15,17,21(25),22-decaene-3-carbonitrile] | 50 to 500 | A (bin A for very high selectivity, ratio >30-fold) | – | C (bin C for moderate selectivity, ratio ≥1) | – | 0.1 to 50 | – | – | > 500 |
| Cc1nn(CC2CC2)c2c1Cc1nccnc1-c1ccc(F)cc1[C@@H](C)Oc1cc-2cnc1N [Example 77, (20R)-3-(cyclopropylmethyl)-17-fluoro-5,20-dimethyl-21-oxa-3,4,9,12,24-pentaazapentacyclo[20.3.1.0^2,^6.0^8,^13.0^14,^19]hexacosa-1(25),2(6),4,8(13),9,11,14,16,18,22(26),23-undecaen-23-amine] | 0.1 to 50 | A (bin A for very high selectivity, ratio >30-fold) | – | A (bin A for very high selectivity, ratio >30-fold) | A (bin A for very high selectivity, ratio >30-fold) | 0.1 to 50 | – | 0.1 to 50 | > 500 |
| C[C@H]1Oc2cc(cnc2N)-c2c(C#N)nn(C)c2Cc2ncsc2-c2ccc(F)cc21 [Example 57, (19R)-22-amino-16-fluoro-5,19-dimethyl-20-oxa-11-thia-4,5,9,23-tetraazapentacyclo[19.3.1.0^2,^6.0^8,^12.0^13,^18]pentacosa-1(24),2(6),3,8(12),9,13,15,17,21(25),22-decaene-3-carbonitrile] | 50 to 500 | A (bin A for very high selectivity, ratio >30-fold) | – | C (bin C for moderate selectivity, ratio ≥1) | – | 0.1 to 50 | – | – | > 500 |
